Among the data in PubChem BioAssay (NCI) are GI50 and TGI values, retold here.

Among the test systems are CCRF-CEM leukemia; EKVX NSCLC; HCT-15 colon; NCI-H226 lung; NCI-H460 lung; NCI-H522 lung; SF-268 CNS; SF-295 CNS; SNB-75 CNS; SR leukemia.
Common to all, as to experiment: NCI tumour cell line growth inhibition, 48 h

Molecules are shown by their SMILES. Where “and” joins values, the source holds several entries; their conditions need not be identical. Equal values may be shown once.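 Test compounds were applied to cells in 96-well plates for 48 hours at 5 doses. At the GI50, growth is halved. TGI marks complete inhibition of growth.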

As for `CN(C)CCCN1c2ccccc2Sc2ccc(Cl)cc21`, the GI50 with CCRF-CEM leukemia was 7.38 µM; with EKVX NSCLC, 12.7 µM and 11.8 µM; in the assay on HCT-15 colon, 3.69 µM and 4.7 µM; in the assay with NCI-H226 lung, 13.1 µM and 15.2 µM; in the assay with NCI-H460 lung, 4.72 µM and 10.8 µM; in the assay on NCI-H522 lung it was 2.74 µM and 2.79 µM. The GI50 is 8.89 µM and 5.25 µM in the assay on SF-268 CNS; 4.13 µM and 8.91 µM with SF-295 CNS; 4.63 µM and 6.09 µM with SNB-75 CNS; 3.01 µM and 3.94 µM in the assay with SR leukemia. Also, the TGI in the assay on CCRF-CEM leukemia was 24.3 µM; with EKVX NSCLC, 28.1 µM and 28 µM; in the assay on HCT-15 colon it was 14.3 µM and 16.6 µM; with NCI-H226 lung, 29.8 µM and 29.1 µM; in the assay with NCI-H460 lung it was 17.1 µM and 23.8 µM; in the assay on NCI-H522 lung it was 7.16 µM and 8.9 µM. Further, the TGI is 21.4 µM and 18.5 µM in the assay with SF-268 CNS; 17.3 µM and 22.9 µM in the assay with SF-295 CNS; 19.7 µM and 23 µM with SNB-75 CNS; 11 µM and 20.2 µM in the assay on SR leukemia.

As to `CN(C)CCCC1(c2ccc(F)cc2)OCc2cc(-c3cncc4ccccc34)ccc21` (centres undefined), the GI50 in the assay with CCRF-CEM leukemia was 3.45 µM; with EKVX NSCLC, 8.48 µM; in the assay with HCT-15 colon it was 3.32 µM; in the assay on NCI-H226 lung, 8.65 µM; in the assay with NCI-H460 lung, 1.73 µM; in the assay with NCI-H522 lung it was 1.88 µM. Further, the GI50 in the assay with SF-268 CNS was 3.15 µM; with SF-295 CNS it was 2.02 µM; in the assay with SNB-75 CNS, 1.66 µM; in the assay on SR leukemia it was 3 µM. The TGI is 11.6 µM with CCRF-CEM leukemia; 21.2 µM in the assay with EKVX NSCLC; 12.6 µM with HCT-15 colon; 27 µM in the assay with NCI-H226 lung; 3.49 µM in the assay with NCI-H460 lung; 4.08 µM with NCI-H522 lung. Moreover, the TGI in the assay on SF-268 CNS came out at 13.9 µM; in the assay with SF-295 CNS it was 4.2 µM; in the assay with SNB-75 CNS, 6.86 µM; with SR leukemia it was 17.9 µM.

As for `Cc1cc(NC(=O)NC(=O)c2ccccc2N(C)C)ccc1Oc1ncc(Br)cn1`, the TGI was 3.5 µM and 11.8 µM in the assay with CCRF-CEM leukemia; over 68.1 µM with EKVX NSCLC; over 68.1 µM in the assay with HCT-15 colon; over 90 µM in the assay with NCI-H226 lung; 55.5 µM in the assay on NCI-H460 lung; 0.408 µM and 0.587 µM with NCI-H522 lung. Also, the TGI with SF-268 CNS is over 68.1 µM; in the assay on SF-295 CNS, 21.8 µM; with SNB-75 CNS, 0.428 µM and 0.555 µM. The GI50 with NCI-H226 lung is 1.88 µM; in the assay with NCI-H460 lung, 0.343 µM; in the assay with NCI-H522 lung, 0.164 µM; in the assay with SNB-75 CNS, 0.11 µM; in the assay on SR leukemia, 0.135 µM.

For `Cn1cc(CO)c2ccccc21`, the GI50 in the assay on CCRF-CEM leukemia was over 100 µM; with EKVX NSCLC, 50.7 µM; in the assay on HCT-15 colon it was 22.4 µM; in the assay with NCI-H226 lung, 64.1 µM; in the assay with NCI-H460 lung it was 30.7 µM; with NCI-H522 lung, 23.4 µM. For the same compound, the GI50 is 60.6 µM in the assay on SF-268 CNS, 34.2 µM with SF-295 CNS, 27.6 µM in the assay on SNB-75 CNS and 17.9 µM in the assay on SR leukemia. The TGI in the assay on CCRF-CEM leukemia, in the assay on EKVX NSCLC, in the assay on HCT-15 colon, with NCI-H226 lung, with NCI-H460 lung and in the assay with NCI-H522 lung was over 100 µM each time. Also, the TGI with SF-268 CNS, in the assay with SF-295 CNS, in the assay with SNB-75 CNS and in the assay on SR leukemia was over 100 µM throughout.

Turning to `CC(C)(CO)N=Cc1ccccc1[O-].CC(C)(CO)N=Cc1ccccc1[O-].[Co+2]`, the GI50 in the assay on CCRF-CEM leukemia was 5.86 µM; with EKVX NSCLC, over 84.4 µM; in the assay with HCT-15 colon it was 69.7 µM; with NCI-H226 lung, 27.9 µM; in the assay with NCI-H460 lung it was over 100 µM; in the assay on NCI-H522 lung, 30.4 µM. In addition, the GI50 is 46.3 µM with SF-268 CNS, over 100 µM with SF-295 CNS, over 86.4 µM in the assay on SNB-75 CNS and 14.4 µM in the assay with SR leukemia. The TGI is 68.2 µM with CCRF-CEM leukemia; over 100 µM in the assay with EKVX NSCLC; over 100 µM in the assay on HCT-15 colon; over 100 µM with NCI-H226 lung; over 100 µM in the assay with NCI-H460 lung; 90.5 µM in the assay on NCI-H522 lung. The TGI in the assay with SF-268 CNS is over 100 µM; in the assay on SF-295 CNS, over 100 µM; in the assay on SNB-75 CNS, over 100 µM; with SR leukemia it was over 90.4 µM.

In the case of `COC(=O)[C@H](Cc1ccccc1)NC(=O)c1csc([C@@H](C[C@H](C(C)C)N(C)C(=O)[C@@H](NC(=O)[C@H]2CCCN2C)C2CC2)OC(C)=O)n1`, the GI50 with CCRF-CEM leukemia is 0.166 µM; in the assay with EKVX NSCLC, 1.97 µM; with HCT-15 colon, 0.855 µM; with NCI-H226 lung it was 3.93 µM; in the assay on NCI-H460 lung it was 0.397 µM; in the assay with NCI-H522 lung it was 0.0783 µM. Further, the GI50 with SF-268 CNS is 1.05 µM; in the assay with SF-295 CNS, 0.254 µM; with SNB-75 CNS, 0.131 µM; in the assay on SR leukemia it was 0.0103 µM. For the same compound, the TGI with CCRF-CEM leukemia, in the assay on EKVX NSCLC, in the assay on HCT-15 colon, in the assay on NCI-H226 lung, in the assay on NCI-H460 lung and in the assay with NCI-H522 lung was over 33.3 µM throughout. Moreover, the TGI in the assay on SF-268 CNS, in the assay with SF-295 CNS, with SNB-75 CNS and in the assay on SR leukemia was over 33.3 µM in each case.

Regarding `COc1ccccc1/C=C\C(=O)c1ccccc1`, the GI50 was 3.28 µM in the assay on CCRF-CEM leukemia; 3.82 µM in the assay on EKVX NSCLC; 4.8 µM with HCT-15 colon; 14.5 µM with NCI-H226 lung; 5.75 µM in the assay on NCI-H460 lung; 2.39 µM with NCI-H522 lung. Further, the GI50 with SF-268 CNS is 13.1 µM; with SF-295 CNS, 3.27 µM; in the assay with SNB-75 CNS, 13.6 µM; in the assay on SR leukemia, 2.77 µM. The TGI was over 100 µM in the assay with CCRF-CEM leukemia; 18.3 µM with EKVX NSCLC; 19.3 µM in the assay on HCT-15 colon; 29.8 µM in the assay with NCI-H226 lung; 18.4 µM with NCI-H460 lung; 7 µM with NCI-H522 lung. For the same compound, the TGI with SF-268 CNS came out at 27 µM; in the assay on SF-295 CNS it was 14 µM; in the assay with SNB-75 CNS, 27 µM; in the assay on SR leukemia it was 18 µM.

Take `O=C(Cc1ccc(/C=C/C(=O)c2ncc[nH]2)cc1)Nc1ccc(C(F)(F)F)cc1`: the GI50 with CCRF-CEM leukemia is 1.55 µM; with EKVX NSCLC, 5.57 µM; in the assay on HCT-15 colon, 1.04 µM; with NCI-H226 lung it was 6.11 µM; in the assay with NCI-H460 lung, 3.6 µM; in the assay on NCI-H522 lung, 4.87 µM. The GI50 is 3.05 µM in the assay on SF-268 CNS, 4.08 µM in the assay on SF-295 CNS, 3.97 µM in the assay on SNB-75 CNS and 0.843 µM with SR leukemia. Moreover, the TGI in the assay with CCRF-CEM leukemia is over 33.3 µM; in the assay on EKVX NSCLC, 14.6 µM; in the assay with HCT-15 colon, 4.79 µM; in the assay with NCI-H226 lung, 13.1 µM; with NCI-H460 lung it was 10.7 µM; with NCI-H522 lung, 12.4 µM. The TGI in the assay on SF-268 CNS was 9.53 µM; with SF-295 CNS, 9.3 µM; in the assay on SNB-75 CNS, 9.12 µM; in the assay on SR leukemia it was over 33.3 µM.

As for `O=C(CCN1CCCC1)Nc1ccc2c(Nc3ccccc3)c3ccccc3nc2c1`, the GI50 in the assay with CCRF-CEM leukemia is 0.142 µM; in the assay with EKVX NSCLC, 1.41 µM; in the assay on HCT-15 colon it was 0.367 µM; in the assay with NCI-H226 lung it was 1.18 µM; in the assay with NCI-H460 lung, 0.0489 µM; in the assay on NCI-H522 lung it was 1.03 µM. Moreover, the GI50 in the assay with SF-268 CNS is 0.677 µM; with SF-295 CNS, 0.498 µM; in the assay on SNB-75 CNS, 1.09 µM; in the assay on SR leukemia, 0.0503 µM. For the same compound, the TGI came to 2.14 µM in the assay with CCRF-CEM leukemia; 4.23 µM in the assay on EKVX NSCLC; 2.36 µM in the assay with HCT-15 colon; 3.53 µM with NCI-H226 lung; 1.2 µM in the assay on NCI-H460 lung; 2.88 µM in the assay with NCI-H522 lung. For the same compound, the TGI in the assay with SF-268 CNS amounted to 2.3 µM; with SF-295 CNS, 1.91 µM; in the assay on SNB-75 CNS it was 2.33 µM; with SR leukemia it was 1.45 µM.

Consider `COc1ccc(/C=C(/C(=O)n2cnnn2)c2cc(OC)c(OC)c(OC)c2)cc1`, for which the GI50 was 3.44 µM with CCRF-CEM leukemia; 5.48 µM in the assay with EKVX NSCLC; 2.03 µM with HCT-15 colon; over 100 µM with NCI-H226 lung; 3.75 µM with NCI-H460 lung; 2.26 µM in the assay with NCI-H522 lung. The GI50 in the assay on SF-268 CNS is 4.04 µM; with SF-295 CNS, 3.24 µM; in the assay on SNB-75 CNS, 3.34 µM; in the assay with SR leukemia, 0.752 µM. Also, the TGI with CCRF-CEM leukemia was over 100 µM; in the assay on EKVX NSCLC, over 100 µM; in the assay with HCT-15 colon, over 100 µM; in the assay with NCI-H226 lung, over 100 µM; in the assay on NCI-H460 lung, over 100 µM; with NCI-H522 lung it was 6.67 µM. For the same compound, the TGI in the assay with SF-268 CNS, in the assay with SF-295 CNS, with SNB-75 CNS and in the assay on SR leukemia was over 100 µM in each case.

With `CC(C)(C)[Si](C)(C)OCC1OC(n2cnc3c(N)ncnc32)C(O)C1O` (centres undefined), the TGI with CCRF-CEM leukemia, in the assay with EKVX NSCLC, in the assay on HCT-15 colon, in the assay on NCI-H226 lung, in the assay with NCI-H460 lung and with NCI-H522 lung was over 100 µM throughout. Also, the TGI with SF-268 CNS, in the assay on SF-295 CNS, in the assay on SNB-75 CNS and with SR leukemia was over 100 µM each time.

`COc1nc2c(c(O)c(C)c(=O)n2OC2OC(COC(C)=O)C(OC(C)=O)C(OC(C)=O)C2OC(C)=O)c(=O)n1C` (centres undefined): the TGI in the assay with CCRF-CEM leukemia, in the assay with EKVX NSCLC, with HCT-15 colon, in the assay on NCI-H226 lung, in the assay on NCI-H460 lung and in the assay on NCI-H522 lung was over 100 µM each time. In addition, the TGI in the assay on SF-268 CNS, in the assay with SF-295 CNS, in the assay on SNB-75 CNS and in the assay with SR leukemia was over 100 µM each time.
